Measured values taken from patent US20240009121A1, “PHARMACEUTICAL COMPOSITION CONTAINING NEUROACTIVE STEROID AND USE THEREOF” (Brii Biosciences, Inc., priority 2020, published 2024).
Read-outs that look alike come from different tables or passages of the source.

Assays:
[1] = rat, 14-day continuous IV infusion, 18 mg/kg/day, cited from earlier work
[2] = tested on: dog; settings: cited from earlier work
[3] = tested on: dog; settings: single IV slow bolus, cited from earlier work
[4] = brexanolone IV at the MRHD of 90 μg/kg/h; cited from earlier work
[5] = tested on: Sprague Dawley rats; settings: rat, cited from earlier work
[6] = tested on: rat; settings: single IV slow bolus, cited from earlier work
[7] = 28-day continuous IV infusion, cited from earlier work
[8] = tested on: Beagle dogs; settings: dog, cited from earlier work
[9] = Single IV infusion PK of brexanolone in dogs; format: in vivo; settings: male Beagle dog; single IV infusion 2.0 mg/kg over 30 minutes; mean
Procedure: (§1) Following a single IV infusion in rats (1.0 mg/kg) and dogs (2.0 mg/kg) over 30 minutes, the PK parameters in Table 2 were obtained.
(§2) In the rat and dog PK studies including brexanolone IV infusion and IM administrations, brexanolone was quantified in rat and dog plasma using a sensitive and specific analytical procedure. Analytes were separated by liquid chromatography (LC) and brexanolone was detected by positive mode electrospray tandem mass spectrometry (MS/MS). The lower limit of quantitation (LLOQ) was 1.0 to 3.0 ng/mL. In the GLP study, LLOQ was 1.0 ng/mL in the rat.
(§3) Intravenous dosing of brexanolone was performed through a 30-min infusion via the jugular vein cannula (JVC) or a temporary percutaneous catheter placed into a lateral tail vein in rats, and via the cephalic vein in dogs. Different suspension formulations were also dosed intramuscularly into the rats and dogs in accordance with test facility standard operating procedures. At the designated time points, blood was collected via direct venipuncture of a cephalic or jugular vein in rats and via the cephalic or saphenous vein in dog. Blood was transferred into collection tubes containing K2EDTA anticoagulant and stored on ice until processed. Blood was processed for plasma by centrifugation. Plasma was then transferred into a 96-well container and stored in a freezer maintained at approximately −70° C. The quantitative analyses of the resulted plasma samples were conducted using a qualified LC-MS/MS method.

[10] = Single IV infusion PK of brexanolone in rats; format: in vivo; settings: male Sprague Dawley rat; single IV infusion 1.0 mg/kg over 30 minutes; mean
Procedure: as §1, §2, §3

[11] = 28-day continuous IV infusion, cited from earlier work; remark: listed apart in the source
[12] = tested on: rats; settings: rat, cited from earlier work
[13] = dog, 14-day continuous IV infusion, 36 mg/kg/day, cited from earlier work
[14] = 5-day continuous IV infusion study
[15] = 28-day continuous IV infusion, 10, 30, 60 mg/kg/day
[16] = 28-day continuous IV infusion, 12, 36, 72 mg/kg/day

1-(3R,5S,8R,9S,10S,13S,14S,17S)-3-hydroxy-10,13-dimethylhexadecahydro-1H-cyclopenta[a]phenanthren-17-yl) ethan-1-one [brexanolone]
AUC0 24 h at NOAEL ([1]; females): 1790 ng·h/mL | Cmax at NOAEL ([1]; females): 111 ng/mL | AUC0 24 h at NOAEL ([1]; males): 2910 ng·h/mL | Cmax at NOAEL ([1]; males): 196 ng/mL | MTD [2, 14]: 60 mg/kg/day | NOAEL ([2]; 14-day continuous IV infusion study, convulsion in one female at 72 mg/kg/day): 36 mg/kg/day | single bolus dose at which rapid anesthesia (within 1 minute) was observed ([3]; doses ≤30 mg/kg): ≥ 7.5 mg/kg | MTD for slow bolus administration ([3]; irregular breathing in 1 of 4 dogs at 30 mg/kg): 20 mg/kg | human exposure AUC0-24h [4]: 1800 ng·h/mL | human exposure Css [4]: 74.3 ng/mL | body weight gain compared to vehicle controls ([5]; females, 30 mg/kg/day, Day 7 to 28): 138% | body weight gain compared to vehicle controls ([5]; females, 30 mg/kg/day, Day −1 to 7): 160% | body weight gain compared to vehicle controls ([5]; females, 60 mg/kg/day, Day 7 to 28): 123% | body weight gain compared to vehicle controls ([5]; females, 60 mg/kg/day, Day −1 to 7): 193% | body weight gain compared to vehicle controls ([5]; males, 10 mg/kg/day, first 7 days): 126% | body weight gain compared to vehicle controls ([5]; males, 30 mg/kg/day, first 7 days): 126% | body weight gain compared to vehicle controls ([5]; males, 60 mg/kg/day, Day 7 to 28): 71% | body weight gain compared to vehicle controls ([5]; males, 60 mg/kg/day, first 7 days): 132% | exposure at NOAEL as multiple of the human exposure at the MRHD ([5]; 60 mg/kg/day vs human 90 μg/kg/h): 5 times | mortality [5, 15]: no test article or vehicle-related mortalities | test article related clinical observations [5, 15]: No test article related clinical observations were noted | NOAEL ([5]; 28-day continuous IV infusion): 60 mg/kg/day | single bolus dose at which rapid anesthesia (within 1 minute) was observed ([6]; doses ≤50 mg/kg): ≥ 10 mg/kg | maximum tolerated dose (MTD) for slow bolus administration ([6]; shallow respiration and death of one male at 50 mg/kg): 30 mg/kg | AUC0-24 h (= AUC0-672 h/28) ([7]; dog F, 12 mg/kg/day): 1820 ng·h/mL | Cmax ([7]; dog F, 12 mg/kg/day): 97.3 ng/mL | Css (= AUC0-672 h/672 h) ([7]; dog F, 12 mg/kg/day): 75.9 ng/mL | AUC0-24 h (= AUC0-672 h/28) ([7]; dog F, 36 mg/kg/day): 6960 ng·h/mL | Cmax ([7]; dog F, 36 mg/kg/day): 338 ng/mL | Css (= AUC0-672 h/672 h) ([7]; dog F, 36 mg/kg/day): 290 ng/mL | AUC0-24 h (= AUC0-672 h/28) ([7]; dog F, 72 mg/kg/day): 11300 ng·h/mL | Cmax ([7]; dog F, 72 mg/kg/day): 571 ng/mL | Css (= AUC0-672 h/672 h) ([7]; dog F, 72 mg/kg/day): 471 ng/mL | AUC0-24 h (= AUC0-672 h/28) ([7]; dog M, 12 mg/kg/day): 1680 ng·h/mL | Cmax ([7]; dog M, 12 mg/kg/day): 89.3 ng/mL | Css (= AUC0-672 h/672 h) ([7]; dog M, 12 mg/kg/day): 69.9 ng/mL | AUC0-24 h (= AUC0-672 h/28) ([7]; dog M, 36 mg/kg/day): 5760 ng·h/mL | Cmax ([7]; dog M, 36 mg/kg/day): 310 ng/mL | Css (= AUC0-672 h/672 h) ([7]; dog M, 36 mg/kg/day): 240 ng/mL | AUC0-24 h (= AUC0-672 h/28) ([7]; dog M, 72 mg/kg/day): 12900 ng·h/mL | Cmax ([7]; dog M, 72 mg/kg/day): 708 ng/mL | Css (= AUC0-672 h/672 h) ([7]; dog M, 72 mg/kg/day): 538 ng/mL | exposure at NOAEL relative to the human exposure at the MRHD ([8]; 12 mg/kg/day vs human 90 μg/kg/h): equivalent to the human exposure | mortality [8, 16]: no test article- or vehicle-related mortalities | test article-related clinical signs [8, 16]: limited to one male dosed with 36 mg/kg which had a convulsion occurring 4 days after completing the 28-day infusion | NOAEL ([8]; 28-day continuous IV infusion, based on convulsion in one 36 mg/kg dog and SBECD-related renal tubular vacuolation at ≥36 mg/kg): 12 mg/kg/day | AUC0-inf [9]: 289 ng·h/mL | AUC0-t [9]: 283 ng·h/mL | CL [9]: ~120 mL/min/kg | MRTinf [9]: 26.5 min | T1/2 [9]: ~101 min | Vss [9]: ~2.99 L/kg | AUC0-inf [10]: 177 ng·h/mL | AUC0-t [10]: 175 ng·h/mL | MRTinf [10]: 21.5 min | AUC0-24 h (= AUC0-672 h/28) ([11]; rat F, 10 mg/kg/day): 1410 ng·h/mL | Cmax ([11]; rat F, 10 mg/kg/day): 63.1 ng/mL | Css (= AUC0-672 h/672 h) ([11]; rat F, 10 mg/kg/day): 58.8 ng/mL | AUC0-24 h (= AUC0-672 h/28) ([11]; rat F, 30 mg/kg/day): 4320 ng·h/mL | Cmax ([11]; rat F, 30 mg/kg/day): 219 ng/mL | Css (= AUC0-672 h/672 h) ([11]; rat F, 30 mg/kg/day): 180 ng/mL | AUC0-24 h (= AUC0-672 h/28) ([11]; rat F, 60 mg/kg/day): 8110 ng·h/mL | Cmax ([11]; rat F, 60 mg/kg/day): 441 ng/mL | Css (= AUC0-672 h/672 h) ([11]; rat F, 60 mg/kg/day): 338 ng/mL | AUC0-24 h (= AUC0-672 h/28) ([11]; rat M, 10 mg/kg/day): 1790 ng·h/mL | Cmax ([11]; rat M, 10 mg/kg/day): 93.8 ng/mL | Css (= AUC0-672 h/672 h) ([11]; rat M, 10 mg/kg/day): 74.4 ng/mL | AUC0-24 h (= AUC0-672 h/28) ([11]; rat M, 30 mg/kg/day): 4890 ng·h/mL | Cmax ([11]; rat M, 30 mg/kg/day): 233 ng/mL | Css (= AUC0-672 h/672 h) ([11]; rat M, 30 mg/kg/day): 204 ng/mL | AUC0-24 h (= AUC0-672 h/28) ([11]; rat M, 60 mg/kg/day): 9960 ng·h/mL | Cmax ([11]; rat M, 60 mg/kg/day): 464 ng/mL | Css (= AUC0-672 h/672 h) ([11]; rat M, 60 mg/kg/day): 415 ng/mL | MTD [12, 14]: 120 mg/kg/day | NOAEL for poor clinical condition resulting in premature euthanasia ([12]; 14-day continuous IV infusion study): 18 mg/kg/day | AUC0-24h at NOAEL ([13]; females): 3840 ng·h/mL | Cmax at NOAEL ([13]; females): 210 ng/mL | AUC0-24h at NOAEL ([13]; males): 3560 ng·h/mL | Cmax at NOAEL ([13]; males): 201 ng/mL
